Columns and labels:
Assay type in all cases: in vivo
[1] = tested on: Two-spotted spider mite (Tetranychus urticae), sensitive strain to hexythiazox, pyridaben and/or fenpyroximate; test: Example 1: two-spotted spider mite egg/larva efficacy on sprayed kidney bean leaves; conditions: 7 days after spray
Text: (§1) The action to be expected E for a given active ingredient combination obeys the so-called COLBY formula and can be calculated as follows (COLBY, S.R. “Calculating synergistic and antagonistic responses of herbicide combination”. Weeds, Vol. 15, pages 20-22; 1967): • ppm=milligrams of active ingredient (=a.i.) per liter of spray mixture • X=% action by active ingredient A) using p ppm of active ingredient • Y=% action by active ingredient B) using q ppm of active ingredient.
(§2) According to COLBY, the expected (additive) action of active ingredients A)+B) using p+q ppm of active ingredient is
(§3) If the action actually observed (0) is greater than the expected action (E), then the action of the combination is super-additive, i.e. there is a synergistic effect.
(§4) Two-spotted spider mites (sensitive strain to hexythiazox, pyridaben and/or fenpyroximate) were allowed to oviposit on leaves of kidney beans for one day, and the female adults were then removed. The leaves were sprayed by a rotating application tower at 200 ml/m^2 of the predetermined concentration prepared from a product (e.g. the mixture according to the instant invention and the solo active ingredients). Seven days thereafter, the number of unhatched eggs and dead larvae was examined, whereby the live egg rate (%) was determined. The efficacy (observed %) against eggs and larvae is, therefore, calculated based on the following formula: […]

[2] = tested on: Two-spotted spider mite (Tetranychus urticae), resistant strain to hexythiazox, pyridaben and/or fenpyroximate; test: Example 2: two-spotted spider mite, resistant strain, egg/larva efficacy
Text: as §1, §2, §3, §4
The Example 2 is conducted with use of two-spotted spider mite (resistant strain to hexythiazox, pyridaben and/or fenpyroximate) in a manner similar to that of Example 1.

[3] = tested on: Kanzawa spider mite (Tetranychus kanzawai), sensitive strain to hexythiazox, pyridaben and/or fenpyroximate; test: Example 3: kanzawa spider mite, sensitive strain, egg/larva efficacy
Text: as §1, §2, §3, §4
The Example 3 is conducted with use of kanzawa spider mite (sensitive strain to hexythiazox, pyridaben and/or fenpyroximate) in a manner similar to that of Example 1.

[4] = tested on: Kanzawa spider mite (Tetranychus kanzawai), resistant strain to hexythiazox, pyridaben and/or fenpyroximate; test: Example 4: kanzawa spider mite, resistant strain, egg/larva efficacy
Text: as §1, §2, §3, §4
The Example 4 is conducted with use of kanzawa spider mite (resistant strain to hexythiazox, pyridaben and/or fenpyroximate) in a manner similar to that of Example 1.

[5] = tested on: Two-spotted spider mite (Tetranychus urticae), sensitive strain to hexythiazox, pyridaben and/or fenpyroximate; test: Example 5: two-spotted spider mite, sensitive strain, egg/larva efficacy (other ratio)
Text: as §1, §2, §3, §4
The Example 5 is conducted with use of two-spotted spider mite (sensitive strain to hexythiazox, pyridaben and/or fenpyroximate) in a manner similar to that of Example 1.

Molecule	observed (%) efficacy against eggs and larvae ([1]; rate 0.16 ppm) [%]	observed (%) efficacy against eggs and larvae ([1]; rate 0.31 ppm) [%]	observed (%) efficacy against eggs and larvae ([2]; rate 0.63 ppm) [%]	observed (%) efficacy against eggs and larvae ([2]; rate 1.25 ppm) [%]	observed (%) efficacy against eggs and larvae ([3]; rate 0.16 ppm) [%]	observed (%) efficacy against eggs and larvae ([3]; rate 0.31 ppm) [%]	observed (%) efficacy against eggs and larvae ([4]; rate 0.63 ppm) [%]	observed (%) efficacy against eggs and larvae ([4]; rate 1.25 ppm) [%]	observed (%) efficacy against eggs and larvae ([5]; rate 0.06 ppm) [%]	observed (%) efficacy against eggs and larvae ([5]; rate 0.13 ppm) [%]	observed (%) efficacy against eggs and larvae ([1]; rate 0.06 ppm) [%]	observed (%) efficacy against eggs and larvae ([1]; rate 0.11 ppm) [%]	observed (%) efficacy against eggs and larvae ([2]; rate 0.23 ppm) [%]	observed (%) efficacy against eggs and larvae ([2]; rate 0.45 ppm) [%]	observed (%) efficacy against eggs and larvae ([3]; rate 0.06 ppm) [%]	observed (%) efficacy against eggs and larvae ([3]; rate 0.11 ppm) [%]	observed (%) efficacy against eggs and larvae ([4]; rate 0.23 ppm) [%]	observed (%) efficacy against eggs and larvae ([4]; rate 0.45 ppm) [%]	observed (%) efficacy against eggs and larvae ([5]; rate 0.19 ppm) [%]	observed (%) efficacy against eggs and larvae ([5]; rate 0.38 ppm) [%]
CCOc1cc(C(C)(C)C)ccc1C1COC(c2c(F)cccc2F)=N1 (centres unmarked) [Etoxazole, etoxazole]	40.6	77.7	9.3	10.5	13.6	60.8	19.4	70.1	0.0	15.1	–	–	–	–	–	–	–	–	–	–
abamectin	–	–	–	–	–	–	–	–	–	–	0.0	9.4	0.9	6.4	2.1	1.3	6.3	43.6	8.7	5.0

— patent US20130059730A1, “INSECTICIDAL COMBINATION” (Kyoyu Agri Company, Ltd., priority 2010, published 2013)
